Measured values as given in US11434237B2, “Selective ligands for tau aggregates” (KARIN & STEN MORTSTEDT CBD SOLUTIONS AB, priority 2017, dated 2022).

Tests used:
Aβ aggregates = target: T1, Aβ aggregates (Homo sapiens, UniProt P05067); test: Compound and antibody 4G8 double staining of AD brain tissue sections; type: binding; conditions: for Overlap between Fluorescence from tested compound and fluorescence from 4G8 observed / Fluorescence from tested compound observed: 100 nM compound, human AD brain tissue sections; for Overlap between Fluorescence from tested compound and fluorescence from 4G8 observed: Aβ antibody 4G8; for Fluorescence from tested compound observed: double staining with Aβ antibody 4G8; for Fluorescence from 4G8 observed: signal of Aβ antibody 4G8 in the section stained with 100 nM of the compound
T1 construct: compound and antibody double staining of Aβ or tau aggregates; from tissue; host or cells: human AD brain tissue sections (20 μm)
T1 sequence (P05067 672-713 limits assumed): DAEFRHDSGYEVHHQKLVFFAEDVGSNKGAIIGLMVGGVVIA
Experimental: (§1) To achieve compound and antibody double staining of Aβ or tau aggregates, tissue sections (20 μm) from human AD brain were fixed in 70% EtOH at 4° C. for 3 min, rehydrated in distilled water and then incubated in PBS for 30 min. Sections were blocked and permeabilized in PBS with 5% normal goat serum and 0.1% triton X-100 (blocking buffer) for 1 h at room temperature (RT). Antibody 4G8 (Biolegend, San Diego, Calif., USA) reactive to Aβ, and AT100 (Thermo Fisher Scientific, Waltham, Mass., USA) directed against tau phosphorylated at […] (3) were diluted 1:500 and 1:1000, respectively, in blocking buffer and added to the sections. After 16 h incubation at 4° C. unbound antibody was removed by washing in PBS with 0.1% triton X-100 (PBS-T) 3×10 min. To visualize antibody binding to Aβ or tau aggregates sections were incubated with goat anti-mouse secondary antibody labelled with Alexa 647 (Thermo Fisher Scientific). The antibody was diluted 1:200 in blocking buffer and after 1 h incubation at RT sections were washed in PBS 3×10 min. Example Compound 3a, Example Compound 3b, Example Compound 3c, Example Compound 3d, Example Compound 3e, Example Compound 3f, Example Compound 3g, Example Compound 3h, Example Compound 3i, Example Compound 3j, Example Compound 3k, Example Compound 3m, Example Compound 3n, Example Compound 3o, Example Compound 3p, Example Compound 3q, Example Compound 3r, Example Compound 3s, Example Compound 3t, Example Compound 3u, Example Compound 8a, Comparative Example 1, Comparative Example 2, Comparative Example 3 and Comparative Example 4 were dissolved in DMSO to a concentration of 1.5 mM and then further diluted in PBS to a final concentration of 100 nM compound prior to staining. The tissue sections were then stained for 30 min at RT with these freshly prepared solutions containing 100 nM of the respective compound in PBS. After three washes in PBS the sections were mounted in Dako mounting medium for fluorescence (Dako Cytomation, Glostrup, Denmark) and allowed to dry overnight before analysis. Fluorescence images were collected using an inverted LSM 780 confocal microscope (Carl Zeiss, Oberkochen, Germany) with the following excitation/emission wavelengths optimized for each compound: 458/484-600 (Comparative Example 1, Comparative Example 3), 561/569-648 (Example Compound 3a, Example Compound 3b, Example Compound 3c, Example Compound 3d, Example Compound 3e, Example Compound 3f, Example Compound 3g, Example Compound 3h, Example Compound 3i, Example Compound 3j, Example Compound 3k, Example Compound 3m, Example Compound 3n, Example Compound 3o, Example Compound 3p, Example Compound 3q, Example Compound 3r, Example Compound 3s, Example Compound 3t, Example Compound 3u, Example Compound 8a, Comparative Example 2 and Comparative Example 4) and 633/638-755 (Alexa 647). To visualize autofluorescent lipofuscin excitation/emission wavelengths 405/410-480 or 405/410-514 were used.

Aβ and tau deposits = test: Co-staining of AD brain sections with q-FTAA-CN and Example Compound 3a; type: binding, human; conditions: simultaneous staining, 100 nM q-FTAA-CN and 100 nM Example Compound 3a
Experimental: Frozen brain sections (20 μm) were fixed in 96% EtOH, rehydrated in 50% EtOH and de-ionized water and then incubated in phosphate buffered saline (PBS, 10 mM phosphate, 140 mM NaCl, 2.7 mM KCl, pH 7.4) for 10 min. Solutions containing 100 nM PBB3 and 100 nM Example Compound 3b or 100 nM q-FTAA-CN and 100 nM Example Compound 3a in PBS were added to the sections. After 30 min, the sections were washed with PBS and mounted with Dako fluorescent mounting medium (Dako Cytomation, Glostrup, Denmark). The mounting medium was allowed to solidify over night before collecting emission spectra of the compounds bound to misfolded A ? and tau using an inverted LSM 780 confocal microscope (Carl Zeiss, Oberkochen, Germany) with excitation wavelengths at 405 nm (PBB3 and q-FTAA-CN) and 561 nm (Example Compound 3a and Example Compound 3b).

tau aggregates [1] = target: T2, tau aggregates (Homo sapiens, UniProt P10636); test: Compound and antibody AT100 double staining of AD brain tissue sections; type: binding; conditions: for Labelling of immune-positive NFTs and dystrophic neurites / Fluorescence from tested compound observed / Overlap between Fluorescence from tested compound and fluorescence from AT-100 observed: 100 nM compound; for Labelling of immune-positive NFTs and dystrophic neurites: AT100 co-staining, AD brain sections; for Fluorescence from tested compound observed / Overlap between Fluorescence from tested compound and fluorescence from AT-100 observed: human AD brain tissue sections; for Fluorescence from tested compound observed: double staining with tau antibody AT-100; for Overlap between Fluorescence from tested compound and fluorescence from AT-100 observed: tau antibody AT-100; for Fluorescence from AT-100 observed: signal of tau antibody AT-100 in the section stained with 100 nM of the compound
T2 construct: tissue sections (20 μm) from human AD brain; from tissue; host or cells: human AD brain tissue sections (20 μm)
T2 sequence (P10636 1-441 isoform P10636-8): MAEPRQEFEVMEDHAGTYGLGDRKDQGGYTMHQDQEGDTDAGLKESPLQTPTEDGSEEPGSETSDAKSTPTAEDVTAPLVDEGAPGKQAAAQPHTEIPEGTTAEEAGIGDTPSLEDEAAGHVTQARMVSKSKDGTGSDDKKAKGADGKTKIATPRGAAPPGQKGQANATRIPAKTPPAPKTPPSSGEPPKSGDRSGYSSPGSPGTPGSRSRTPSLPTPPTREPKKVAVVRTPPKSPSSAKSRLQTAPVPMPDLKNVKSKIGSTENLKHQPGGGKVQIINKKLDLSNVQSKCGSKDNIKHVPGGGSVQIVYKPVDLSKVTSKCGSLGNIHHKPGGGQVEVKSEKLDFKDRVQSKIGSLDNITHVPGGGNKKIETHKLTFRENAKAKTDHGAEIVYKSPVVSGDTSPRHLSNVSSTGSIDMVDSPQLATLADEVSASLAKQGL
Experimental: as §1

tau aggregates [2] = target: T2, tau aggregates; test: Example Compound 3b staining of AD brain sections pre-incubated with q-FTAA-CN; type: binding; conditions: FIG. 7H, pre-incubated with 1 μM q-FTAA-CN, then 10 nM Example Compound 3b
Experimental: Frozen brain sections (20 μm) were fixed in 96% EtOH, rehydrated in 50% EtOH and de-ionized water and then incubated in phosphate buffered saline (PBS, 10 mM phosphate, 140 mM NaCl, 2.7 mM KCl, pH 7.4) for 10 min. The sections were stained with solutions containing 1 ? M PBB3 or 1 ? M q-FTAA-CN in PBS for 30 min and after rinsing three times with PBS, the sections was stained with a solution containing 10 nM Example Compound 3b. After 30 min, the sections were washed with PBS and mounted with Dako fluorescent mounting medium (Dako Cytomation, Glostrup, Denmark). The mounting medium was allowed to solidify over night before collecting emission spectra of the compounds bound to misfolded Aβ and tau using an inverted LSM 780 confocal microscope (Carl Zeiss, Oberkochen, Germany) with excitation wavelengths at 405 nm (PBB3 and q-FTAA-CN) and 561 nm (Example Compound 3b).

Row | Overlap between Fluorescence from tested compound and fluorescence from 4G8 observed (Aβ aggregates) | Fluorescence from tested compound observed (Aβ aggregates) | Fluorescence from 4G8 observed (Aβ aggregates) | Fluorescence from tested compound observed (tau aggregates [1]) | Overlap between Fluorescence from tested compound and fluorescence from AT-100 observed (tau aggregates [1]) | Fluorescence from AT-100 observed (tau aggregates [1]) | Fluorescence from q-FTAA-CN observed (tau aggregates [2]; listed as q-FTAA) | Structure (SMILES) | Deposits labelled (Aβ and tau deposits) | Fluorescence from Example 3a observed (Aβ and tau deposits; FIG. 7A-C) | Overlap between Fluorescence from Example 3a and fluorescence from q-FTAA-CN (Aβ and tau deposits; FIG. 7A-C) | Labelling of immune-positive NFTs and dystrophic neurites (tau aggregates [1]) | Fluorescence from q-FTAA-CN observed (Aβ and tau deposits; FIG. 7A-C) | Fluorescence from q-FTAA-CN observed (tau aggregates [2])
1 | no correlation and no | yes | yes | yes | yes | yes |  | CC[n+]1c(/C=C/c2ccc(-c3ccc(C(=O)OC)s3)s2)sc2ccccc21 [Example Compound 3a] | tau aggregates (arrows) displayed Example Compound 3a fluorescence | yes | no | labelled both immune-positive NFTs and dystrophic neurites |  | 
2 | no correlation and no | yes | yes | yes | yes | yes |  | CC[n+]1c(/C=C/c2ccc(-c3cccc4nsnc34)s2)sc2ccccc21.[I-] [Example Compound 3o] |  |  |  | labelled both immune-positive NFTs and dystrophic neurites |  | 
3 | no correlation and no | yes | yes | yes | yes | yes |  | CC[n+]1c(/C=C/c2ccc(-c3ccc4ncsc4c3)s2)sc2ccccc21.[I-] [Example Compound 3s] |  |  |  | labelled both immune-positive NFTs and dystrophic neurites |  | 
4 | no correlation and no | yes | yes | yes | yes | yes |  | CC[n+]1c(/C=C/c2ccc(-c3ccc(C#N)s3)s2)sc2ccccc21.[I-] [Example Compound 3t] |  |  |  | labelled both immune-positive NFTs and dystrophic neurites |  | 
5 | no correlation and no | yes | yes | yes | yes | yes |  | CC[n+]1c(/C=C/c2ccc(-c3ccc(C(=O)OC)s3)s2)sc2ccc(O)cc21.[I-] [Example Compound 3u] |  |  |  | labelled both immune-positive NFTs and dystrophic neurites |  | 
6 |  |  |  |  |  |  | labelled both Aβ deposits and NFTs | N#Cc1cc(CC(=O)O)c(-c2ccc(-c3sc(-c4ccc(C(=O)O)s4)cc3CC(=O)O)s2)s1 [q-FTAA-CN, reference compound] | selectively labelled Aβ deposits |  |  |  | yes | observed from both Aβ deposits (small arrow-heads) and tau aggregates and yes

Row | Structure (SMILES) | Overlap between Fluorescence from tested compound and fluorescence from 4G8 observed (Aβ aggregates) | Fluorescence from tested compound observed (Aβ aggregates) | Fluorescence from 4G8 observed (Aβ aggregates) | Fluorescence from tested compound observed (tau aggregates [1]) | Overlap between Fluorescence from tested compound and fluorescence from AT-100 observed (tau aggregates [1]) | Fluorescence from AT-100 observed (tau aggregates [1]) | Fluorescence from q-FTAA-CN observed (tau aggregates [2]; listed as q-FTAA) | Deposits labelled (Aβ and tau deposits) | Fluorescence from Example 3a observed (Aβ and tau deposits; FIG. 7A-C) | Overlap between Fluorescence from Example 3a and fluorescence from q-FTAA-CN (Aβ and tau deposits; FIG. 7A-C) | Labelling of immune-positive NFTs and dystrophic neurites (tau aggregates [1]) | Fluorescence from q-FTAA-CN observed (Aβ and tau deposits; FIG. 7A-C) | Fluorescence from q-FTAA-CN observed (tau aggregates [2])
7 | CC[n+]1c(/C=C/c2ccc(-c3ccc(C(=O)OC)[se]3)s2)[se]c2ccc(OC)cc21.[I-] [Example Compound 3p] | no correlation and no | yes | yes | yes | yes | yes |  |  |  |  | labelled both immune-positive NFTs and dystrophic neurites |  | 
8 | CC[n+]1c(/C=C/c2ccc(-c3ccc[se]3)s2)[se]c2ccc(OC)cc21.[I-] [Example Compound 3q] | no correlation and no | yes | yes | yes | yes | yes |  |  |  |  | labelled both immune-positive NFTs and dystrophic neurites |  | 
9 | CC[n+]1c(/C=C/c2ccc(-c3ccc(C(=O)OC)[se]3)s2)sc2ccccc21.[I-] [Example Compound 3r] | no correlation and no | yes | yes | yes | yes | yes |  |  |  |  | labelled both immune-positive NFTs and dystrophic neurites |  | 
